Assay results as given in ChEMBL document CHEMBL5724796, “Tm Shift (DSF) assay results for EUbOPEN Chemogenomics Library” (2024).
Residues, ends and D or L forms follow the SMILES beside them. *: point of attachment. Cbz = O=C(OCc1ccccc1)*; CH2F = FC*

Assays:
Peregrin (Homo sapiens) = target: T1, Peregrin (Homo sapiens) (UniProt P55201); details: Compound concentration 20.0 uM
T1 sequence (whole entry): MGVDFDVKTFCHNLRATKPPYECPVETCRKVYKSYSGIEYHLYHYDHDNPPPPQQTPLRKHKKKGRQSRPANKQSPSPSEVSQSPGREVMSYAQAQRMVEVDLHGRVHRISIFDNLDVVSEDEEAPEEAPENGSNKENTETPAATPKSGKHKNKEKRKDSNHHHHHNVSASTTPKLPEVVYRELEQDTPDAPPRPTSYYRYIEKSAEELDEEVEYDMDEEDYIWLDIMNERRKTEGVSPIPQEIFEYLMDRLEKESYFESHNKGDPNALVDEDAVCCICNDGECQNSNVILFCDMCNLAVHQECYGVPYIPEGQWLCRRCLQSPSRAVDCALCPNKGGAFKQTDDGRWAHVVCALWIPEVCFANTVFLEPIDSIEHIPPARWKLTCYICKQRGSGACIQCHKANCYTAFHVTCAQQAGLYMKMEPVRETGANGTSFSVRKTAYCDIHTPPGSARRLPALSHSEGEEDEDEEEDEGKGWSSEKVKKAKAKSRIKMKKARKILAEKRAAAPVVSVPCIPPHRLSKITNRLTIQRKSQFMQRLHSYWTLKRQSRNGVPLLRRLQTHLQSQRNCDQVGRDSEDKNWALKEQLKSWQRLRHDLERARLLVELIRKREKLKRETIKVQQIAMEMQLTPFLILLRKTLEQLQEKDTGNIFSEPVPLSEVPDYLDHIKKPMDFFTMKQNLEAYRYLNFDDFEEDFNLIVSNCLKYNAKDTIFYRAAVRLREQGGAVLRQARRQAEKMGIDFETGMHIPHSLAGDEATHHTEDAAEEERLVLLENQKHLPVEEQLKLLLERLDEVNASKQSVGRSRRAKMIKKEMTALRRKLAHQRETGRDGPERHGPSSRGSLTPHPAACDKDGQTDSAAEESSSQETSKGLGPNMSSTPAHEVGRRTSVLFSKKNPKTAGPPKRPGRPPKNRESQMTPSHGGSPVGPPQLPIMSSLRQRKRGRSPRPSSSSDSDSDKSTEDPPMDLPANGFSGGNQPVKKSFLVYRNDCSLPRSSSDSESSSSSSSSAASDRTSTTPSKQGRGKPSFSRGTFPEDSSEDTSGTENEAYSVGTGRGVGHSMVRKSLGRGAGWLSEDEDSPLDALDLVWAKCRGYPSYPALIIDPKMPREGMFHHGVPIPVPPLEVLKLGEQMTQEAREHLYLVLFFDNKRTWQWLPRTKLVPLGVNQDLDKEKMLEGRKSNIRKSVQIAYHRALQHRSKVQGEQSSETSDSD

[1] = target: Fibroblast growth factor receptor 2 (Homo sapiens) (UniProt P21802); details: Compound concentration 20.0 uM
Fibroblast growth factor receptor 2 (Homo sapiens), sequence (P21802 22-821 limits assumed): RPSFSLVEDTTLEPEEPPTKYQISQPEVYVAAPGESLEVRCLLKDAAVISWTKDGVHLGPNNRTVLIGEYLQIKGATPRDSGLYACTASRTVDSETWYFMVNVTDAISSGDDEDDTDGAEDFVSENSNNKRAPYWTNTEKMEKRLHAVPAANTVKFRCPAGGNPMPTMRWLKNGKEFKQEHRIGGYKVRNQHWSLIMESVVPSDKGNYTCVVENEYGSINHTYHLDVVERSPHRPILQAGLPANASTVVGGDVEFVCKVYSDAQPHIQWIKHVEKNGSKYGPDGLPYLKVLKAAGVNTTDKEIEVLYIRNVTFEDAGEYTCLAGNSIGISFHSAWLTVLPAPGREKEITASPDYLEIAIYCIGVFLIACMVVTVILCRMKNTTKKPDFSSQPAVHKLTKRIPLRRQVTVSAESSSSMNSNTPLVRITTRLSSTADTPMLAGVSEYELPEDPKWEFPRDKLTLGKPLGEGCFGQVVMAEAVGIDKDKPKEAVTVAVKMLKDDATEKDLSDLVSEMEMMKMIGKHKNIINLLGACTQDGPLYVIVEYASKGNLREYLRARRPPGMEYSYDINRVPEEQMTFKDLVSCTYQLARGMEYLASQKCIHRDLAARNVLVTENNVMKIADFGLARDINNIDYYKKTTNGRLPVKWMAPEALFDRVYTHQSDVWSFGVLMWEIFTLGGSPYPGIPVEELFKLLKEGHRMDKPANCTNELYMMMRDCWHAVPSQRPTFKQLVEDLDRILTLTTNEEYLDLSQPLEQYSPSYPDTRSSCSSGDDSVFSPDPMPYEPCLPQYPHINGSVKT
Description: Thermal Shift Assay. Domain: start/stop: T457-E768

| SMILES | ΔTm (Peregrin (Homo sapiens)) [°C] | ΔTm [1] [°C] |
| --- | --- | --- |
| CCCNC(=O)[C@H]1O[C@@H]1C(=O)N[C@H](C(=O)N1CCC[C@H]1C(=O)O)[C@@H](C)CC | -2.2 | 0.07 |
| NC(=O)c1cccc(NC(=O)CCC(=O)NCCc2cn(CCNS(=O)(=O)c3cccc(C(=O)O)c3)nn2)c1 | -1.38 | -1.91 |
| Cc1[nH]c2c(N3CCO[C@H](CO)C3)c(C#N)c(C(F)(F)F)nc2c1Cl | 1.11 | 0.41 |
| CC1(C)CC[C@]2(C(=O)O)CC[C@]3(C)C(=CC[C@@H]4[C@@]5(C)C=C(O)C(=O)C(C)(C)[C@@H]5CC[C@]43C)[C@@H]2C1 | 2.32 | 0 |
| Cn1cc(C(=O)Nc2ccc([C@@H]3C[C@H]3NCC3CC3)cc2)cn1 | 0.16 | -0.53 |
| N=C(N)NC(=O)c1cnn(-c2cccc3ncccc23)c1C1CC1 | -0.17 | -0.51 |
| C[C@]12CCCN1CC1=NNC(=O)c3cc(F)cc4[nH]c2c1c34 | -1.02 | 0.9 |
| Fc1ccc(C(OCCN2CCN(CCCc3ccccc3)CC2)c2ccc(F)cc2)cc1 | 0.78 | -0.47 |
| CCOCC1(COCC)CCC(c2n[nH]cc2CN(C)CCNC)CC1 | -0.75 | -0.35 |
| COC(=O)CC[C@H](NC(=O)[C@H](Cc1c[nH]c2ccccc12)NC(=O)OCc1ccccc1)C(=O)N[C@@H](Cc1cnc[nH]1)C(=O)N[C@@H](CC(=O)OC)C(=O)CF (Cbz-WE(OMe)HD(OMe)-CH2F) | -1.05 | 0.1 |
| CC(C)Oc1ccc(C=O)cc1 | -0.07 | 0.13 |
| Cc1ccc(F)c2cc(C(=O)N[C@@H]3CCC[C@H](N4CC[C@H](N(C)S(C)(=O)=O)C4)C3)[nH]c12 | -0.28 | -0.4 |
| Cc1nn(CC(F)(F)F)cc1Nc1ncc(Br)c(NCc2ccc(S(N)(=O)=O)cc2)n1 | -0.36 | 2.95 |
| CC(C)[C@@H]1C(=O)N(S(C)(=O)=O)[C@@H]2CCN(C(=O)/C=C/CN3CCCCC3)[C@H]21 | -1.67 | 0.49 |
| O=C(CCCCCCC(=O)Nc1ccc([C@H]2O[C@@H](CSc3nc(-c4ccccc4)c(-c4ccccc4)o3)C[C@@H](c3ccc(CO)cc3)O2)cc1)NO | 0 | -10.7 |
| Nc1cccc(CNC(=O)c2ccc(Oc3ccc(OCc4cccc(F)c4)cc3)nc2)c1 | 2.81 | -0.6 |
| O=[N+]([O-])c1cc(O)c(O)c([N+](=O)[O-])c1 | 2.24 | 0.52 |
| CSc1cccc(Nc2ncc3cc(-c4c(Cl)cccc4Cl)c(=O)n(C)c3n2)c1 | -0.8 | -0.92 |
| O=C(C=Cc1ccc(O)cc1)c1ccc(O)cc1O | 0.82 | 1.26 |
| O=C(c1cc(Cc2n[nH]c(=O)c3ccccc23)ccc1F)N1CC(CNC2CC2)C1 | -0.32 | -0.3 |
| CCC(=O)N[C@H]1CC[C@@H](C(=O)N(C)c2ccc(-c3nc4ccccc4o3)cc2)C1 | 0.27 | 0.23 |
| CCS(=O)(=O)N1CCC([C@@H](C)n2c(C)c(C(=O)NCc3c(OC)cc(C)[nH]c3=O)c3ccccc32)CC1 | -1.1 | 0.02 |
| CC1(NC(=O)COc2cccc(-c3nc4c(c(Nc5ccc(-c6cn[nH]c6)cc5)n3)CN(C3CCC3)CC4)c2)CC1 | 1.53 | -0.36 |
| COc1ccccc1[C@H]1[C@H](C(=O)O)[C@H](c2ccccc2OC)[C@H]1C(=O)Oc1cccc2ccccc12 | 0.27 | -0.72 |
| O=C(CNC(=O)[C@H](COP(=O)(O)O)NC(=O)CCc1c[nH]c2ccccc12)NCCCCc1ccccc1 | 2.14 | 0.74 |
| CNCCN(C)Cc1cn[nH]c1-c1ccc(OC2CC(OCCC3CCOCC3)C2)cc1 (stereo not drawn) | -0.84 | 0.29 |
| CCCCN(Cc1ccc(C(=O)NO)cc1)C(=O)Nc1ccccc1 | -0.92 | -0.44 |
| Cc1ccc([N+](=O)[O-])cc1S(=O)(=O)N(C)C | 2.57 | -0.67 |
| CC(=O)N[C@@H](Cc1ccc(O)cc1)C(=O)N[C@H](C(=O)N[C@@H](C)C(=O)N[C@H](C=O)CC(=O)O)C(C)C | -1.25 | 0.54 |
